This data set is described as follows: Volume of distribution at steady state in Sprague-Dawley rat at 0.5 mg/kg, iv by LCMS/MS analysis. It counts as ADME, organism-based. As to conditions: in vivo, read-out: Vdss.

Data on one molecule can be found in ChEMBL document CHEMBL5108064, “Comparative Analysis of Small-Molecule LIMK1/2 Inhibitors: Chemical Synthesis, Biochemistry, and Cellular Activity” (J Med Chem, 2022).

Consider `Cc1c[nH]c2ncnc(N3CCC(CN)(C(=O)Nc4cccc(OC(=O)N(C)C)c4)CC3)c12` [LX-7101], for which the Vd was 0.5 L/kg.
